Data as given in PMC5623949, “Exploiting the 2-Amino-1,3,4-thiadiazole Scaffold To Inhibit Trypanosoma brucei Pteridine Reductase in Support of Early-Stage Drug Discovery” (ACS Omega, 2017).
Read-outs that look alike come from different tables or passages of the source.

Columns and labels:
786-O = assay: cells; parameters: mitochondrial toxicity in 786-O renal carcinoma cells; settings: Homo sapiens, 786-0; mitochondrial toxicity
[1] = test system: T. b. brucei Lister 427 bloodstream forms; assay: In vitro activity against T. brucei (HTS SYBR Green I growth inhibition assay); assay type: cell-based, Trypanosoma brucei brucei; settings: Trypanosoma brucei, standard deviation within ±10% of the value; for inhibition at 50 µM: read-out: % Inhibition T. brucei at 50 μM
hERG = molecular target: T1, hERG (Homo sapiens, UniProt Q12809); parameters: hERG inhibition liability assay
T1 construct: gene KCNH2
T1 sequence (Q12809 whole entry): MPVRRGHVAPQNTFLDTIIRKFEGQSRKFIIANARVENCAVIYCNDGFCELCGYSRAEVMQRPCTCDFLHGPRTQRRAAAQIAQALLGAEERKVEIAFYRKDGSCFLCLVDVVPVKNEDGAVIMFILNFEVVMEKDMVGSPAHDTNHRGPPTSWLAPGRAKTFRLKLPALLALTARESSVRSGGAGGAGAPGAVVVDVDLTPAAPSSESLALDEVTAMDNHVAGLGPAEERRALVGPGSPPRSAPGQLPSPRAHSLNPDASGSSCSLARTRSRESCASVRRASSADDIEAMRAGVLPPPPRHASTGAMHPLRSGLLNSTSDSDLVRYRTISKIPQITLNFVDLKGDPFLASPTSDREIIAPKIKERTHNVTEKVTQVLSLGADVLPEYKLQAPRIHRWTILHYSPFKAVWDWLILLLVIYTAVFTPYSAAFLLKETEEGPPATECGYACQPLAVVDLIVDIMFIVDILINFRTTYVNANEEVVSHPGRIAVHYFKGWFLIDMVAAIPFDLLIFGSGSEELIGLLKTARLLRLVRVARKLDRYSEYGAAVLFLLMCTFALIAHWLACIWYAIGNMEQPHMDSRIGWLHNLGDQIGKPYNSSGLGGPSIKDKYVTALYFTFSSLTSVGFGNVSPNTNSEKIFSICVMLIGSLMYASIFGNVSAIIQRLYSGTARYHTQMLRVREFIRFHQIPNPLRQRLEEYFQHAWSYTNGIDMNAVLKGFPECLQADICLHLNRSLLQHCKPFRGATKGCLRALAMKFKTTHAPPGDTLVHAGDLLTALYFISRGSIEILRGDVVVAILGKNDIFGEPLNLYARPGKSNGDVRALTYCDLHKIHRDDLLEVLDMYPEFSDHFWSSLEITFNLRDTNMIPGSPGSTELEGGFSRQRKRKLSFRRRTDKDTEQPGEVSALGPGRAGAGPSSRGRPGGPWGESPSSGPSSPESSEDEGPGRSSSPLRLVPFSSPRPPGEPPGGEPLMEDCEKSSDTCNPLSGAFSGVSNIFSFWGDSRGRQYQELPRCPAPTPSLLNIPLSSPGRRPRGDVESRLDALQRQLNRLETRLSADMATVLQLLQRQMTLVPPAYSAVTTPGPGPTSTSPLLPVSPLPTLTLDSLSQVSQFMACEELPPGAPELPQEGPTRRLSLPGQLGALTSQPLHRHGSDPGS

TbPTR1 = molecular target: T2, TbPTR1 (Trypanosoma brucei brucei, UniProt O76290); assay: biochemical; settings: for inhibition at 50 µM: 50 μM compound, read-out: % Inhibition TbPTR1 at 50 μM; for IC50: dose-response 0.001-100 μM
T2 construct: made in house
T2 sequence (O76290 1-268): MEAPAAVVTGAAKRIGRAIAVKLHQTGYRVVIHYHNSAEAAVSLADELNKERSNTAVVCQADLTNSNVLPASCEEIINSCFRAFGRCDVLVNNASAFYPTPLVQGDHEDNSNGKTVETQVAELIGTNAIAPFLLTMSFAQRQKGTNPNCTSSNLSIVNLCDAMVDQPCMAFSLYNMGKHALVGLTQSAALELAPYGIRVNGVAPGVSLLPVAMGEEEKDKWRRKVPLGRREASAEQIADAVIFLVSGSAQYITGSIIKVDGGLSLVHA

CYP3A4 = CYP3A4 (Homo sapiens, UniProt P08684); assay: in vitro; parameters: cytochrome P450 isoform inhibition liability assay
Sequence of CYP3A4 (P08684 whole entry, canonical isoform): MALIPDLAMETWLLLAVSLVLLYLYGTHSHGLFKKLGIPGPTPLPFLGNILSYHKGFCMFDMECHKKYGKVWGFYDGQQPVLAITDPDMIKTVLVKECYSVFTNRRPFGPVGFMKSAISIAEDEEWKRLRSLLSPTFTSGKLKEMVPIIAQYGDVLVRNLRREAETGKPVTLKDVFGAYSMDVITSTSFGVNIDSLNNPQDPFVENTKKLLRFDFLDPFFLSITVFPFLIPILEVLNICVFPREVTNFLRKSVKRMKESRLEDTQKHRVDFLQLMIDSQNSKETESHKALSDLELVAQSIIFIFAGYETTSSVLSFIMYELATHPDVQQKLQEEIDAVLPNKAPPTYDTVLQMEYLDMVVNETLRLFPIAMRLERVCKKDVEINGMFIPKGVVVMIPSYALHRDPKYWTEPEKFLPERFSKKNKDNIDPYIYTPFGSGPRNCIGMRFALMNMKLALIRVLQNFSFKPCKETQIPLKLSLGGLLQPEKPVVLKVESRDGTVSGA

CYP2C19 = CYP2C19 (Homo sapiens, UniProt P33261); assay: in vitro; parameters: cytochrome P450 isoform inhibition liability assay
Sequence of CYP2C19 (P33261 whole entry, canonical isoform): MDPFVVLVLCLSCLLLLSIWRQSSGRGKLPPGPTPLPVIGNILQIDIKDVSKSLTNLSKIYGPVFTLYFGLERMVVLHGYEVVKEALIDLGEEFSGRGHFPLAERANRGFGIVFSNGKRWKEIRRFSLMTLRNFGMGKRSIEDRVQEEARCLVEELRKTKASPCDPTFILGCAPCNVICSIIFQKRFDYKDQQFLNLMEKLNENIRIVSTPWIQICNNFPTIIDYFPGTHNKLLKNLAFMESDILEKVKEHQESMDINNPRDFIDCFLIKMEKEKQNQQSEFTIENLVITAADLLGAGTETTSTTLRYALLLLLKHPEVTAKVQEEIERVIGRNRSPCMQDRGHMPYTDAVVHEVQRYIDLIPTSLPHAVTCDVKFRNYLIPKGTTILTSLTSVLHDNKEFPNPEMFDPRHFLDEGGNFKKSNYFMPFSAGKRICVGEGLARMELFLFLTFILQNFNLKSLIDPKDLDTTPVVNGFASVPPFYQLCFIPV

CYP2D6 = CYP2D6 (Homo sapiens, UniProt P10635); assay: in vitro; parameters: cytochrome P450 isoform inhibition liability assay
Sequence of CYP2D6 (P10635 whole entry, canonical isoform): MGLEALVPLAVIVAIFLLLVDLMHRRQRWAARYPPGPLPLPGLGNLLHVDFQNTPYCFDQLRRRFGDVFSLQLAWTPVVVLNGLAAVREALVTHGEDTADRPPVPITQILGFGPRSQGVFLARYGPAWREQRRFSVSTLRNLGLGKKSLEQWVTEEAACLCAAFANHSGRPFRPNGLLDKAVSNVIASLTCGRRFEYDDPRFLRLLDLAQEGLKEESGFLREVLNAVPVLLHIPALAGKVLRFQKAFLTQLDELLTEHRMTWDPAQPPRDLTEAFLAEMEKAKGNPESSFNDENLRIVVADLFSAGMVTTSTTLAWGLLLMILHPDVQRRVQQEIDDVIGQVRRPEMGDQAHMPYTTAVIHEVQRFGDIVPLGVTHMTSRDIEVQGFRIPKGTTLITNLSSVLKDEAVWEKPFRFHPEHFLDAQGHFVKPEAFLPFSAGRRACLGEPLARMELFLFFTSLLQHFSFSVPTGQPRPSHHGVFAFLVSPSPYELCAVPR

CYP1A2 = molecular target: T3, CYP1A2 (Homo sapiens, UniProt P05177); assay: in vitro; parameters: cytochrome P450 isoform inhibition liability assay
T3 sequence (P05177 1-516): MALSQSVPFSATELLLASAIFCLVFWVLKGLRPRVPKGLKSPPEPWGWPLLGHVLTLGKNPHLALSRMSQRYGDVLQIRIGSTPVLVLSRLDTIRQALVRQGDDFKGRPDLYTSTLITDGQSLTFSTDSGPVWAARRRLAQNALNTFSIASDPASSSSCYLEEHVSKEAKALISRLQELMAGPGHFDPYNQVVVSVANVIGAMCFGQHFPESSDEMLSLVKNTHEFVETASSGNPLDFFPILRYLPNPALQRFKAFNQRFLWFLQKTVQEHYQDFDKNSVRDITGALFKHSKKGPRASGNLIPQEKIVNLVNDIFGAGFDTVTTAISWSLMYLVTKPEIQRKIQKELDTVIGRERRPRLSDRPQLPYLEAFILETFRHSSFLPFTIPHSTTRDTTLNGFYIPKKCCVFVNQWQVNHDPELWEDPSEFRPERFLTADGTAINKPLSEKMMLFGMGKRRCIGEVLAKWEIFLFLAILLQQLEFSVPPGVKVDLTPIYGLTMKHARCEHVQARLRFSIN

CYP2C9 = CYP2C9 (Homo sapiens, UniProt P11712); assay: in vitro; parameters: cytochrome P450 isoform inhibition liability assay
Sequence of CYP2C9 (P11712 whole entry, canonical isoform): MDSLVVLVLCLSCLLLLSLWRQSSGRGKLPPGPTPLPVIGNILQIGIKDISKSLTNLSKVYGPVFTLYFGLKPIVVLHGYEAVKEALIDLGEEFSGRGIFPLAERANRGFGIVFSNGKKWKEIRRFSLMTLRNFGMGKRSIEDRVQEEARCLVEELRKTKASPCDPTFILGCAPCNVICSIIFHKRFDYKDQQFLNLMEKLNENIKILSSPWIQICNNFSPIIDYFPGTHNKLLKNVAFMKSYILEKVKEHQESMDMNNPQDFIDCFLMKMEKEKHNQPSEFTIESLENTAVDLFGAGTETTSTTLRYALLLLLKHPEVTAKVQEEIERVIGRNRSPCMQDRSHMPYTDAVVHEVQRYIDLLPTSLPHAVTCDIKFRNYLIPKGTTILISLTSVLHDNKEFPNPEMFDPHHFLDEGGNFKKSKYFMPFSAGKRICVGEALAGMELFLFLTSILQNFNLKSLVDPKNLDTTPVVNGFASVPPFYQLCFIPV

hDHFR = molecular target: T4, hDHFR (Homo sapiens, UniProt P00374); assay: biochemical; parameters: human DHFR enzyme inhibition
T4 construct: gene DHFR
T4 sequence (P00374 1-187): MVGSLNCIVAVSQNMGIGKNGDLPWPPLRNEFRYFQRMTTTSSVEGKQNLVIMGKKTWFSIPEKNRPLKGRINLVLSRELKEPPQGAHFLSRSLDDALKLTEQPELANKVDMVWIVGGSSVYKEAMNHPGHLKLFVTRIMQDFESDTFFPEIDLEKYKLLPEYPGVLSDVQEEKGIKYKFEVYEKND
Procedure: Figure 10 Summary heat map of the in vitro assays to determine possible liability issues for all synthesized compounds. Assays were performed to assess inhibition of hERG and five CYP isoforms (1A2, 2C9, 2C19, 2D6, and 3A4), growth inhibition of A549 and W1-38 cell lines, and mitochondrial toxicity at 10 μM. The hDHFR inhibition was determined at 100 μM. The data, expressed as percentage values, were organized by adopting a color code for rapid and intuitive visualization. The ideal compound should have all tiles blue, indicating a safe toxicological profile for progressing into the development pipeline. The cells are colored from blue (100% of cell growth at the tested concentration) to red (0% of cell growth at the tested concentration) for A549 and W1-38 and from blue (0% of inhibitory activity at the tested concentration) to red (100% of inhibitory activity at the tested concentration) for CYP isoforms, hERG, hDHFR, and mitochondrial toxicity.

in vitro [2] = assay: in vitro; parameters: cytotoxicity, per cent cell growth of WI-38 fibroblasts; settings: human, wi-38 cells; read-out: % cell growth W1-38 at 10uM
in vitro [3] = assay: in vitro; parameters: cytotoxicity, per cent cell growth of A549 cells; settings: human, a549 cells; read-out: % cell growth A549 at 10uM

## Nc1nnc(NCc2ccc(C(F)(F)F)cc2)s1 [4f]
786-O
  inhibition at 10 µM: 9.6 ± 12.5%
[1]
  inhibition at 50 µM: < 0%
hERG
  inhibition at 10 µM: 69.9 ± 2.3%
TbPTR1
  inhibition at 50 µM: 37.7 ± 0.5%
  IC50: 48 µM
CYP3A4
  inhibition at 10 µM: 7.8 ± 9.8%
CYP2C19
  inhibition at 10 µM: 11.9 ± 6.6%
CYP2D6
  inhibition at 10 µM: 72.4 ± 3.8%
CYP1A2
  inhibition at 10 µM: 24.6 ± 2.5%
CYP2C9
  inhibition at 10 µM: 19.5 ± 1.3%
hDHFR
  inhibition at 100 µM: 19%
In vitro [2]
  viability at 10 µM: 80.9 ± 23.6%
In vitro [3]
  viability at 10 µM: 113 ± 4.8%

## Nc1cccc(-c2ccc(-c3nnc(N)s3)cc2)c1 [2b]
786-O
  inhibition at 10 µM: -1 ± 2.2%
[1]
  inhibition at 50 µM: 33.4%
hERG
  inhibition at 10 µM: 9.1 ± 4.4%
TbPTR1
  inhibition at 50 µM: 16.2 ± 0.5%
CYP3A4
  inhibition at 10 µM: 32 ± 3.7%
CYP2C19
  inhibition at 10 µM: -3.9 ± 13.3%
CYP2D6
  inhibition at 10 µM: -16.1 ± 6.6%
CYP1A2
  inhibition at 10 µM: 44.6 ± 1.5%
CYP2C9
  inhibition at 10 µM: 1.9 ± 1%
hDHFR; 10 uM
  inhibition at 10 µM: 17%
In vitro [2]
  viability at 10 µM: 73.4 ± 2.5%
In vitro [3]
  viability at 10 µM: 137 ± 11.1%

## N#Cc1ccc(CNc2nnc(N)s2)cc1 [4h]
786-O
  inhibition at 10 µM: -0.1 ± 9.4%
[1]
  inhibition at 50 µM: < 0%
hERG
  inhibition at 10 µM: 82.6 ± 11.8%
TbPTR1
  inhibition at 50 µM: 34.6 ± 3%
  IC50: 70 µM
CYP3A4
  inhibition at 10 µM: 7.2 ± 12.7%
CYP2C19
  inhibition at 10 µM: -2 ± 6.3%
CYP2D6
  inhibition at 10 µM: 62.4 ± 2.9%
CYP1A2
  inhibition at 10 µM: 17.1 ± 4.4%
CYP2C9
  inhibition at 10 µM: 15 ± 1.4%
hDHFR
  inhibition at 100 µM: 17%
In vitro [2]
  viability at 10 µM: 107 ± 24.9%
In vitro [3]
  viability at 10 µM: 105 ± 2.3%

## COc1ccccc1-c1nnc(N)s1 [1h]
786-O
  inhibition at 10 µM: -7.8 ± 2.6%
[1]
  inhibition at 50 µM: < 0%
hERG
  inhibition at 10 µM: 5.2 ± 6.6%
TbPTR1
  inhibition at 50 µM: 24.1 ± 1%
CYP3A4
  inhibition at 10 µM: -9.4 ± 8%
CYP2C19
  inhibition at 10 µM: -20.9 ± 16.1%
CYP2D6
  inhibition at 10 µM: -31.5 ± 9.5%
CYP1A2
  inhibition at 10 µM: 21.5 ± 4.6%
CYP2C9
  inhibition at 10 µM: -32.3 ± 3.6%
hDHFR
  inhibition at 100 µM: 14%
In vitro [2]
  viability at 10 µM: 129 ± 10.3%
In vitro [3]
  viability at 10 µM: 126 ± 17.3%

## Nc1nnc(-c2ccc(O)c(O)c2)s1 [1d, 3′,4′-dihydroxy-phenyl-1,3,4-thiadiazole]
786-O
  inhibition at 10 µM: -0.1 ± 6.2%
[1]
  inhibition at 50 µM: 78.6%
[1]; read-out: EC50 T. brucei
  EC50: 18.3 µM
hERG
  inhibition at 10 µM: 19.2 ± 6.4%
TbPTR1
  inhibition at 50 µM: 16.7 ± 1%
CYP3A4
  inhibition at 10 µM: -8.1 ± 3.2%
CYP2C19
  inhibition at 10 µM: -32.3 ± 7.8%
CYP2D6
  inhibition at 10 µM: -28.4 ± 10.1%
CYP1A2
  inhibition at 10 µM: -16.8 ± 6.9%
CYP2C9
  inhibition at 10 µM: -19.5 ± 5.6%
hDHFR
  inhibition at 100 µM: 62%
In vitro [2]
  viability at 10 µM: 99.9 ± 17.5%
In vitro [3]
  viability at 10 µM: 145.9 ± 0.7%
